Measurements reported in patent US5844000A, “Propenone oxime ethers and pharmaceutical compositions containing them” (Sanofi, priority 1997, dated 1998).
“Also recorded” adds a separate entry of the source.

Key:
[1] = Biotransformation: excreted radioactivity (urine and feces) as SR 46349 and metabolites in humans; format: in vivo, human; details: for percentage of excreted radioactivity: urine and feces, excreted (recovered) radioactivity
Procedure: Excretion-balance, plasma and blood pharmacokinetics of radioactivity, and clinical safety/tolerance were reported.
The capsule was dropped directly in the mouth and swallowed with 150 mL of tap water at about 8:00 AM. Ingestion of the capsule was verified by inspection of the oral cavity of each subject.
A representative pool of urine was prepared for each subject by mixing aliquots from each collection interval in proportion to the percent of radioactivity present in each collection interval.
A representative pool of fecal homogenate was prepared for each subject by mixing aliquots from each collection interval in proportion to the percent of radioactivity present in each collection interval.
(§1) Metabolite quantitation was conducted with an HP1090 HPLC system (Hewlett Packard, Wilmington, Del. HPLC eluant was fraction collected (0.33 mL/fraction using a FOXY™ Model 200 fraction collector; Isco, Lincoln, Nebr.). Fractions were mixed with 5 mL of Biofluor cocktail and then counted using a Tri-Carb 2700TR liquid scintillation counter (Packard, Meriden, Conn.).
Sample extraction and HPLC column recoveries were calculated using measured radioactivity in samples, sample extracts and HPLC eluants. Recoveries of 100% were based on the expected amount of radioactivity in a sample prior to extraction or HPLC analysis.
Urinary and fecal metabolites are expressed as a percentage of the radioactivity in each matrix and as a percentage of excreted (recovered) radioactivity. Values were corrected for total experimental recoveries.

[2] = test system: 5-HT2; details: result in words; U.S. Pat. No. 5,166,416; cited from earlier work
[3] = Plasma metabolite profiling in humans; format: in vivo, human; details: result in words; time points up to 48 hr
Procedure: (§2) The objective of this study was to quantitate the biotransformation of ^14 C-SR 46349B in humans. Six healthy male volunteers were treated orally with a single 30 mg dose of ^14 C-SR 46349B (corresponding to 35.4 mg of the salified compound), labeled on the C-1 position of the propenyl chain with ^14 C (1.375 MBq). Excretion-balance, plasma and blood pharmacokinetics of radioactivity, and clinical safety/tolerance were reported. Plasma, urine and fecal homogenates were analyzed for quantitation and identification of SR 46349B and metabolites.
Subjects were fasted overnight prior to the morning of ^14 C-SR 46349B administration. […]
Pools of plasma for each collection time were prepared by mixing equal amounts of plasma from all subjects. This made available enough plasma at each time point to quantitate metabolites. […] Due to low amounts of radioactivity in plasma, five concentrated extracts from the same time point were combined. […] Pools for each collection time were analyzed in triplicate.
as §1, with “Conn.). […]” for “Conn.).”

[4] = Human pharmacokinetics: plasma concentration of SR 46349 (HPLC-UV) after single oral dose of 14C-SR 46349B; format: in vivo
Procedure: as §2
(§3) Subjects were fasted overnight prior to the morning of ^14 C-SR 46349B administration. All subjects received a single oral 30 mg dose of ^14 C-SR 46349B (corresponding to 35.4 mg of the […] compound) in a single gelatin capsule. The capsule was dropped directly in the mouth and swallowed with 150 mL of tap water at about 8:00 AM. Ingestion of the capsule was verified by inspection of the oral cavity of each subject.
(§4) Blood samples were obtained at 0, 0.5, 1, 1.5, 2, 2.5, 3, 4, 6, 8, 10, 12, 16, 24, 36, 48, 72, 96, 120, 144, 168, 192, 216, 240, 264, 288 and 312 hr after dosing. For each sample, approximately 7 mL of blood (22 mL at 2, 3, 4, 8, 12, 24 and 48 hrs after dosing) was drawn into polypropylene collection tubes containing lithium heparin (as an anticoagulant). Following the removal of 1 mL of blood for radiocarbon analysis, samples were centrifuged (within 30 min) at 2000-3000×g for 10 min and the plasma transferred into polypropylene transport tubes. All samples were stored frozen (≤-18° C.) until analysis.
The concentration of SR 46349 in plasma samples was determined using a validated HPLC method with UV detection at 320 nm. […] The samples were dried at room temperature and resuspended in 0.15 mL of mobile phase and 0.05 mL was analyzed. […]
Unknown concentrations of SR 46349 were quantified by reference to a 1/y^2 weighted regression analysis of the peak-area ratio (SR 46349/internal standard) versus concentration of the calibration curve standards. […]
Model-independent pharmacokinetic parameters for plasma concentrations of SR 46349 were calculated for each subject. The maximum observed plasma concentration (Cmax) of SR 46349 and its corresponding time (tmax) were determined by visual inspection of individual concentration-time profiles. Half-life (t 1/2) was calculated from the ratio of ln(2)/λZ, where λZ is the regressed slope of the terminal phase. The area under the plasma concentration of SR 46349-versus-time-curves (AUC(0-t)) was calculated using the trapezoidal rule. AUC was calculated for the sum of AUC(0-t) and Cp(1)/λZ wherein Cp(1) is the last measurable concentration time point. […]

[5] = Urinary excretion and urinary metabolite profiling in humans; format: in vivo, human; details: up to 336 hr post-dose, % of administered dose
Procedure: as §2
(§5) Subjects were fasted overnight prior to the morning of ^14 C-SR 46349B administration. All subjects received a single oral 30 mg dose of ^14 C-SR 46349B (corresponding to 35.4 mg of the unsalified compound) in a single gelatin capsule. […]
(§6) Aliquots of plasma and urine samples were added directly to Ready-Safe scintillant (9 mL), hand shaken for a few seconds and left for at least 2 hours prior to counting. […] Radioactivity assays were performed with a Packard Instruments Tri-Carb, Model 1600TR Liquid Scintillation System. […]
A representative pool of urine was prepared for each subject by mixing aliquots from each collection interval in proportion to the percent of radioactivity present in each collection interval. Pools were prepared to represent approximately 95% of total collected urinary radioactivity. […]

[6] = Human pharmacokinetics: plasma radioactivity after single oral dose of 14C-SR 46349B; format: in vivo
Procedure: as §2, §3, §4
Aliquots of plasma and urine samples were added directly to Ready-Safe scintillant (9 mL), hand shaken for a few seconds and left for at least 2 hours prior to counting. Aliquots of fecal homogenates were weighed in a Combusto-Cone fitted with a CombustoPad. The samples were allowed to dry overnight before combustion in a Packard Sample Oxidizer, Model 307 (Meriden, Conn.). Carbo-Sorb and Permafluor E^+ were used as scintillants (10 mL). Samples mixed with scintillant were left for at least 4 hours prior to counting. Radioactivity assays were performed with a Packard Instruments Tri-Carb, Model 1600TR Liquid Scintillation System. The LOQ was set at 12 cpm above background.

[7] = Fecal excretion and fecal metabolite profiling in humans; format: in vivo, human; details: up to 276 hr post-dose, % of administered dose
Procedure: as §2, §5, §6
A representative pool of fecal homogenate was prepared for each subject by mixing aliquots from each collection interval in proportion to the percent of radioactivity present in each collection interval. Pools were prepared to represent approximately 95% of total collected fecal radioactivity. […]

**Q.** With C[N+](C)([O-])CCON=C(/C=C/c1ccc(O)cc1)c1ccccc1F [H22 & H23] as the compound, how does the “percentage of excreted radioactivity” value [1] read?
**A.** approximately 23%

**Q.** Which 5-HT2 antagonist activity [2] does the source give for CN(C)CCON=C(/C=C/c1ccc(O)cc1)c1ccccc1F [SR 46349B, Trans 1-N,N-dimethylaminoethoxyimino 1-(2-fluorophenyl)-3-(4-hydroxyphenyl)2-propene hemifumarate] here?
**A.** potent 5-HT2 antagonist

**Q.** And the “plasma concentration compared with any single metabolite” value [3]?
**A.** higher than any single metabolite, except at the 48 hr time point

**Q.** For CN(C)CCON=C(/C=C/c1ccc(O)cc1)c1ccccc1F [SR 46349], which half-life ([4]; human, po, 30 mg, single oral 30 mg, mean (±SD), read-out: terminal elimination half-life of SR 46349 (converted)) is on record?
**A.** ~23 h

**Q.** And the Cmax ([4]; human, single oral 30 mg 14C-SR 46349B, healthy male volunteers, capsule, fasted, read-out: Cmax of SR 46349 in plasma, mean (±SD))?
**A.** 50 ng/mL

**Q.** What about the AUC ([4]; human, single oral 30 mg, read-out: mean plasma AUC for SR 46349 (±SD), as restated in the discussion) of the same compound?
**A.** 1200 ng·h/mL

**Q.** And the “terminal elimination half-life of SR 46349” value ([4]; single oral 30 mg, mean (±SD))?
**A.** 22.9 (±7.3) hr

**Q.** And the “extent and pathways of metabolism” value ([1]; result in words, human)?
**A.** extensively metabolized; also recorded: N-oxidation, N-demethylation, sulfation and glucuronidation; also recorded: oxidation of SR 46349 (N-oxidation and N-demethylation) appears to be the major mechanism of metabolic clearance

**Q.** What about the “percentage of excreted radioactivity” value [1] of the same compound?
**A.** approximately 6%

**Q.** And the “plasma concentration compared with any single metabolite” value [3]?
**A.** always higher than any individual metabolite

**Q.** With CN(C)CCO/N=[14C](/C=C/c1ccc(O)cc1)c1ccccc1F [^14 C-SR 46349B] as the compound, how does the “cumulative urinary excretion of radioactivity, mean (±SD)” value [5] read?
**A.** 70.3 (±4.6) %

**Q.** And the “cumulative urinary excretion of radioactivity, range” value ([5]; range over subjects)?
**A.** 63.1 to 77.1%

**Q.** What about the “maximal plasma concentrations of radioactivity relative to plasma concentrations of SR 46349” value ([6]; at similar tmax values, radioactivity / SR 46349) of the same compound?
**A.** approximately 3 times

**Q.** And the “AUC of plasma radioactivity relative to mean plasma AUC for SR 46349” value ([6]; radioactivity / SR 46349)?
**A.** approximately 11 times

**Q.** And the “Cmax of plasma radioactivity, mean (±SD)” value ([6]; single oral 30 mg 14C-SR 46349B, total radioactivity)?
**A.** 0.16 (±0.02) mg eq/L

**Q.** And the “AUC of plasma radioactivity, mean (±SD)” value ([6]; single oral 30 mg, total radioactivity)?
**A.** 13.7 (±2. 1) mg eq.circle-solid.hr/L

**Q.** What about the “cumulative fecal excretion of radioactivity, mean (±SD)” value [7] of the same compound?
**A.** 21.6 (±3.5) %

**Q.** What about the “cumulative fecal excretion of radioactivity, range” value ([7]; range over subjects) of the same compound?
**A.** 16.4 to 26.5%
